Test results published in the SangsterLogP compilation.

Assay: not given
Details: not given

Q: With `Cc1[nH]c(=O)c(C#N)cc1C(=O)O` as the compound, how does the logP read?
A: The logP was 0.15.

Q: For `CC(=O)c1cc(C(=O)O)c(=O)[nH]c1C`, which logP is on record?
A: Its logP is -0.04.

Q: With `Cc1ccc(C#N)c(=O)[nH]1` as the compound, how does the logP read?
A: The logP was -0.13.

Q: With `CCOC(=O)c1cc(C#N)c(=O)[nH]c1C` as the compound, how does the logP read?
A: Its logP is 0.65.

Q: For `COC(=O)c1cc(C(C)=O)c(C)[nH]c1=O`, which logP is on record?
A: The logP was -0.09.

Q: With `N#Cc1ccc(-c2ccccn2)[nH]c1=O` as the compound, how does the logP read?
A: Its logP is 0.3.

Q: With `N#Cc1ccc(-c2ccncc2)[nH]c1=O` as the compound, how does the logP read?
A: Its logP is 0.02.

Q: Which logP does the source give for `N#Cc1ccc(-c2cccnc2)[nH]c1=O` here?
A: The logP was 0.05.

Q: Which logP does the source give for `Cc1[nH]c(=O)c(C#N)cc1C(=O)OCC(C)C` here?
A: The logP was 1.78.

Assay: method code SF, from DOI: 10.1016/j.ejps.2005.05.001, PMID: 15955679
Details: not given

Q: With `O=c1[nH]c2c(cc1S(=O)(=O)c1ccccc1)CCCC2` as the compound, how does the logP read?
A: Its logP is 1.76.

Q: Which logP does the source give for `CC(=O)c1ccc(-c2ccccc2)[nH]c1=O` here?
A: Its logP is 1.74.

Q: For `O=C(c1ccccc1)c1cc2c([nH]c1=O)CCCC2`, which logP is on record?
A: Its logP is 2.1.

Same assay, conditions: pH 7.4

Q: For `CC(=O)c1ccc(=O)[nH]c1C`, which logD is on record?
A: Its logD is -0.3.
